Reference: patent US20080139628A1 (ARENA PHARMACEUTICALS, INC., priority 2004, published 2008)
Blank lines part the entries; values can stand above or below the molecule they belong to.

What was measured:
[1] = tested on: niacin-induced flushing in mice; assay: Block of niacin-induced flushing in mice, Laser Dopler; format: in vivo; conditions: for change from baseline (flush) at 3 minutes / change above baseline (flush) at 15 minutes: mice given compound about 10 minutes before niacin; for change from baseline (flush) at 3 minutes: 3 minutes after niacin; for change above baseline (flush) at 15 minutes: at/within 15 minutes after niacin
Procedure: Flushing was measured using a Laser Dopler.
In these experiments, the control group contained anesthetized mice that were administered niacin alone and flushing above baseline was measured over time. […]

[2] = tested on: free fatty acid release; assay: NEFA competition: free fatty acids in blood of mice (NEFA-C assay kit); format: in vivo; conditions: for concentration of free fatty acid: blood after 10 minutes (vehicle sample 0.9 mM)
Procedure: After 10 minutes the mice were euthanized and blood was collected. The blood samples were processed and tested for free fatty acid release using the non-esterified fatty-acid (NEFA) assay (the NEFA-C assay kit from Waco Chemicals USA, Richmond, Va.).

[3] = tested on: mice; assay: Flush in response to PGD2 in mice treated with niacin receptor partial agonist; format: in vivo; conditions: mice pretreated with Compound 1 and niacin
Procedure: After re-establishment of baseline, PGD2 was administered and flushing was recorded. […] Baseline was then re-established at 20% above baseline and PGD2 was administered.

[4] = tested on: dysmenorrhea or painful menstruation; conditions: 80 women, 100 mg niacin twice daily, then every 2 to 3 hours during heavy cramps; cited from earlier work

SMILES: C1Cc2[nH]nc(-c3nnn[nH]3)c2C1 [Compound 1, 3-(1H-Tetrazol-5-yl)-1,4,5,6-tetrahydro-cyclopentapyrazole]
change from baseline (flush) at 3 minutes [1]: 10% | change above baseline (flush) at 15 minutes [1]: about 20% | flushing induced by niacin ([1]; mice, partial agonist given prior to niacin): significantly reduced | interference with the reduction in free fatty acids induced by niacin ([2]; Compound 1 plus niacin): does not interfere | concentration of free fatty acid ([2]; Compound 1 plus niacin): 0.38 mM

SMILES: O=C(O)c1cc(Cc2cccc(F)c2)[nH]n1 [Compound 2, 5-(3-Fluoro-benzyl)-1H-pyrazole-3-carboxylic acid]
change from baseline (flush) at 3 minutes [1]: 0% | change above baseline (flush) at 15 minutes [1]: about 15%

SMILES: O=C(O)c1cc(Cc2cccc(Cl)c2)[nH]n1 [Compound 3, 5-(3-Chloro-benzyl)-1H-pyrazole-3-carboxylic acid]
change from baseline (flush) at 3 minutes [1]: about 18% | change above baseline (flush) at 15 minutes [1]: about 13%

SMILES: O=C(O)c1cc(Cc2cccc(Br)c2)[nH]n1 [Compound 4, 5-(3-Bromo-benzyl)-1H-pyrazole-3-carboxylic acid]
change from baseline (flush) at 3 minutes [1]: 15% | change above baseline (flush) at 15 minutes [1]: about 30%

time of flush peak after PGD2 administration [3]: about 6 minutes | time after PGD2 administration at which flushing began ([3]; baseline re-established at 20% above baseline): about 1.5 minutes | flush peak, % of the original baseline ([3]; about 6 minutes after PGD2): about 70%
SMILES: CCCCC[C@H](O)/C=C/[C@H]1C(=O)C[C@H](O)[C@@H]1C/C=C\CCCC(=O)O [PGD2, prostaglandin D2]

time after which mice began to flush ([1]; anesthetized mice, niacin alone): 1.5 min
SMILES: O=C(O)c1cccnc1 [niacin, nicotinic acid, reference compound]
concentration of free fatty acid ([2]; vehicle plus niacin): 0.4 mM | subjects who experienced significant relief [4]: About 90%
